Common to all, as to type: cell-based
The subject of one test is Cordana musae. Briefly: In vitro-test with fungal microorganisms: Cordana musae. The procedure: (§1) The degree of efficacy, expressed in % is denoted. 0% means an efficacy which corresponds to that of the control while an efficacy of 100% means that no disease is observed.
(§2) Wells of 96-well microtiter plates are filled with 30 μl of a preparation of test compound or compound combination in methanol+emulsifier alkylaryl-polyglycol-ether. Thereafter, the solvent is evaporated in a hood. At the next step, into each well 200 μl of liquid growth medium is given, that has been amended with an appropriate concentration of spores or mycelium suspension of the test fungus.
(§3) With the aid of a photometer the extinction in all wells is measured at the wavelength of 600 nm.
(§4) The microtiter plates are incubated for 3 to 7 days at 20° C. and 85% relative humidity. After the incubation inhibition of growth is determined photometrically. Efficacy is calculated in relation to the untreated control, 0% efficacy means fungal growth as high as in untreated control while 100% efficacy means no fungal growth is measured.

In the next test the test system is Colletotrichum coccodes. Briefly: In vitro-test with fungal microorganisms: Colletotrichum coccodes. The procedure: as §1, §2, §3, §4
The next test deals with Diaporthe citri. Briefly: In vitro-test with fungal microorganisms: Diaporthe citri. The procedure:
as §1, §2, §3, §4

Another test deals with Parastasonospora nodorum. Kind of test: In vitro-test with fungal microorganisms: Parastasonospora nodorum. The procedure: as §1, §2, §3, §4
For another test, the system named is Alternaria alternata. Kind of test: In vitro-test with fungal microorganisms (microtiter plate, photometric growth inhibition): Alternaria alternata. The procedure:
as §1, §2, §3, §4

In the next test the test system is Botrytis cinerea. Briefly: In vitro-test with fungal microorganisms: Botrytis cinerea. The procedure: as §1, §2, §3, §4
The test system of a further test is Cercospora beticola. Briefly: In vitro-test with fungal microorganisms: Cercospora beticola. The procedure: as §1, §2, §3, §4
A further test has as its system Fusarium culmorum. Briefly: In vitro-test with fungal microorganisms: Fusarium culmorum. The procedure: as §1, §2, §3, §4

Results on 18 compounds are retold here after US20230133087A1, “ACTIVE COMPOUND COMBINATIONS AND FUNGICIDE COMPOSITIONS COMPRISING THOSE” (priority 2020, published 2023).

Where “and” joins values, the source holds several entries; their conditions need not be identical. Identical values can stand only once.

For `O=C(NC1CCC1c1ccc(Cl)cc1Cl)c1cccnc1C(F)(F)F` (stereo in doubt) [(2.060) cyclobutrifluram, cyclobutrifluram], the efficacy with Cordana musae (0.04 ppm) is recorded as 3%; in the test with Cordana musae (0.2 ppm) it was 4%; in the test with Cordana musae (1 ppm), 6%; in the test on Colletotrichum coccodes (0.04 ppm) it was 5%; with Colletotrichum coccodes (0.2 ppm) it was 8%.
Take `O=C(NC1CCC1c1ccc(Cl)cc1Cl)c1cccnc1C(F)(F)F` (stereo in doubt) [cyclobutrifluram]: the efficacy with Diaporthe citri (Table F1, 0.04 ppm) is on record as 0%; with Parastasonospora nodorum (Table H2, 0.04 ppm), 27%.
For the compound `O=C(NCCc1ncc(C(F)(F)F)cc1Cl)c1ccccc1C(F)(F)F` [(2.005) fluopyram, fluopyram], the efficacy is 72% in the test on Alternaria alternata (0.16 ppm); 73% in the test on Alternaria alternata (0.8 ppm); 95% with Alternaria alternata (4 ppm); 0% with Botrytis cinerea (0.8 ppm); 0% in the test on Cordana musae (0.16 ppm); 6% and 0% in the test with Cordana musae (0.8 ppm). Further, the efficacy with Colletotrichum coccodes (0.16 ppm) is 10% and 0%; with Colletotrichum coccodes (0.8 ppm), 0%.
As to `Cc1nn(C)c(F)c1C(=O)Nc1ccccc1C(C)CC(C)C` (centres unmarked) [(2.017) penflufen, penflufen], the efficacy was found to be 14% in the test on Alternaria alternata (0.2 ppm); 35% in the test with Botrytis cinerea (1 ppm); 7% with Botrytis cinerea (5 ppm); 5% with Colletotrichum coccodes (0.04 ppm); 0% with Colletotrichum coccodes (0.2 ppm).
In the case of `CON(C(=O)c1cn(C)nc1C(F)F)C(C)Cc1c(Cl)cc(Cl)cc1Cl` (centres unmarked) [(2.019) pydiflumetofen, pydiflumetofen], the efficacy is 71% with Botrytis cinerea (0.04 ppm); 82% in the test on Botrytis cinerea (0.2 ppm); 92% with Botrytis cinerea (1 ppm); 8% and 9% in the test with Colletotrichum coccodes (0.008 ppm); 19% in the test on Colletotrichum coccodes (0.2 ppm).
For `CC(C)c1ccc(Cl)cc1CN(C(=O)c1c(C(F)F)nn(C)c1F)C1CC1` [(2.038) isoflucypram, isoflucypram], the efficacy in the test on Alternaria alternata (0.008 ppm) is on record as 51%; with Alternaria alternata (0.2 ppm), 69%; in the test with Cercospora beticola (0.008 ppm), 20%; with Cercospora beticola (0.04 ppm), 30%; with Cercospora beticola (0.2 ppm) it was 0%; in the test on Cercospora beticola (1 ppm), 88%. Moreover, the efficacy in the test on Cordana musae (0.008 ppm) was 8% and 2%; with Cordana musae (0.04 ppm) it was 0%; in the test with Colletotrichum coccodes (0.008 ppm), 23%; in the test on Colletotrichum coccodes (0.04 ppm), 9% and 5%; in the test with Colletotrichum coccodes (0.2 ppm), 14%.
As for `CO/N=C(/C1=NOCCO1)c1ccccc1Oc1ncnc(Oc2ccccc2Cl)c1F` [(3.012) fluoxastrobin, fluoxastrobin], the efficacy in the test on Alternaria alternata (2 ppm) is 100%; in the test with Botrytis cinerea (0.08 ppm), 15% and 12%; with Botrytis cinerea (2 ppm) it was 59% and 52%; in the test with Botrytis cinerea (10 ppm), 86% and 83%; with Cercospora beticola (2 ppm), 94%; in the test on Cordana musae (2 ppm), 77%. The efficacy was 87% in the test with Cordana musae (10 ppm); 0% with Colletotrichum coccodes (0.008 ppm); 30% and 15% in the test with Colletotrichum coccodes (0.08 ppm); 49% and 50% and 51% in the test on Colletotrichum coccodes (0.4 ppm); 88% and 87% and 82% and 83% in the test with Colletotrichum coccodes (2 ppm); 94% and 95% and 96% in the test on Colletotrichum coccodes (10 ppm).
On to `CON=C(C(=O)OC)c1ccccc1CON=C(C)c1cccc(C(F)(F)F)c1` [(3.020) trifloxystrobin, trifloxystrobin], for which the efficacy in the test on Alternaria alternata (0.008 ppm) is 39%; in the test with Alternaria alternata (1 ppm), 100%; in the test on Botrytis cinerea (0.008 ppm) it was 0%; in the test on Botrytis cinerea (0.04 ppm), 9%; in the test on Botrytis cinerea (0.2 ppm), 25%; with Botrytis cinerea (1 ppm), 81%. The efficacy is 29% with Cordana musae (0.008 ppm); 82% in the test on Cordana musae (0.04 ppm); 83% and 82% in the test with Cordana musae (0.2 ppm); 89% and 88% and 86% and 85% in the test with Cordana musae (1 ppm); 58% and 62% and 61% in the test on Colletotrichum coccodes (0.04 ppm); 84% and 88% and 82% with Colletotrichum coccodes (0.2 ppm). Moreover, the efficacy with Colletotrichum coccodes (1 ppm) is 96% and 97% and 92%.
Take `Cc1cccc(-n2nnn(C)c2=O)c1COc1ccn(-c2ccc(Cl)cc2)n1` [(3.030) metyltetraprole, metyltetraprole]: the efficacy in the test on Alternaria alternata (2 ppm) is 92% and 99%; in the test on Alternaria alternata (10 ppm), 99%; in the test on Botrytis cinerea (0.08 ppm), 18%; with Botrytis cinerea (0.4 ppm) it was 30% and 25%; in the test on Botrytis cinerea (10 ppm) it was 84%; with Cordana musae (0.08 ppm), 65%. Moreover, the efficacy in the test on Cordana musae (0.4 ppm) was 77%; in the test with Cordana musae (10 ppm) it was 96%; with Colletotrichum coccodes (0.008 ppm), 36%; in the test on Colletotrichum coccodes (0.4 ppm), 75% and 73% and 72%; with Colletotrichum coccodes (2 ppm), 92% and 94% and 82%; in the test on Colletotrichum coccodes (10 ppm), 100%.
In the case of `O=C(NCCc1ncc(C(F)(F)F)cc1Cl)c1ccccc1C(F)(F)F` [fluopyram], the efficacy in the test on Diaporthe citri (Table F1, 0.16 ppm) was 0%; in the test with Parastasonospora nodorum (Table H1, 0.16 ppm), 14%; in the test on Parastasonospora nodorum (Table H1, 20 ppm), 100%; with Fusarium culmorum (0.16 ppm) it was 9%; in the test on Fusarium culmorum (0.8 ppm), 18%.
Turning to `CO/N=C(/C1=NOCCO1)c1ccccc1Oc1ncnc(Oc2ccccc2Cl)c1F` [fluoxastrobin], the efficacy in the test on Cordana musae (0.4 ppm) is reported as 64%; with Cordana musae (2 ppm), 78%; in the test with Cordana musae (10 ppm), 78%; in the test on Diaporthe citri (Table F1, 0.4 ppm), 89%; in the test on Diaporthe citri (Table F1, 2 ppm) it was 98%; in the test with Diaporthe citri (Table F2, 2 ppm) it was 66%. The efficacy in the test on Parastasonospora nodorum (Table H1, 0.4 ppm) was found to be 77%; with Parastasonospora nodorum (Table H1, 2 ppm) it was 87%; in the test with Parastasonospora nodorum (Table H2, 0.08 ppm), 60%; in the test with Parastasonospora nodorum (Table H2, 0.4 ppm), 65%; with Parastasonospora nodorum (Table H2, 2 ppm) it was 85%; with Parastasonospora nodorum (Table H3, 0.08 ppm) it was 57%. For the same compound, the efficacy with Parastasonospora nodorum (Table H3, 2 ppm) was 85%; in the test on Parastasonospora nodorum (Table H3, 10 ppm), 82%; in the test with Fusarium culmorum (0.08 ppm), 7% and 0%; with Fusarium culmorum (0.4 ppm) it was 17%; with Fusarium culmorum (10 ppm), 56%.
Consider `C[C@@H]1CC(C)(C)c2cccc(NC(=O)c3cn(C)nc3C(F)F)c21` [inpyrfluxam], for which the efficacy with Cordana musae (0.008 ppm) stood at 16%; in the test on Cordana musae (0.04 ppm), 0%; in the test on Cordana musae (0.2 ppm) it was 6%; in the test with Parastasonospora nodorum (Table H3, 0.008 ppm), 20%.
For the compound `CC(C)c1ccc(Cl)cc1CN(C(=O)c1c(C(F)F)nn(C)c1F)C1CC1` [isoflucypram], the efficacy in the test with Fusarium culmorum (0.04 ppm) is given as 0%; with Fusarium culmorum (0.2 ppm), 11%.
Regarding `Cc1cccc(-n2nnn(C)c2=O)c1COc1ccn(-c2ccc(Cl)cc2)n1` [metyltetraprole], the efficacy with Cordana musae (0.08 ppm) was found to be 58%; in the test on Cordana musae (0.4 ppm), 73%; in the test with Cordana musae (2 ppm), 82%; in the test with Diaporthe citri (Table F1, 0.4 ppm), 91%; in the test on Diaporthe citri (Table F1, 2 ppm) it was 99%; in the test with Diaporthe citri (Table F1, 10 ppm), 99%. The efficacy was 89% in the test with Diaporthe citri (Table F2, 0.4 ppm); 99% with Diaporthe citri (Table F2, 2 ppm); 80% and 76% in the test on Parastasonospora nodorum (Table H2, 0.08 ppm); 92% in the test on Parastasonospora nodorum (Table H2, 0.4 ppm); 100% in the test with Parastasonospora nodorum (Table H2, 2 ppm); 100% in the test with Parastasonospora nodorum (Table H2, 10 ppm).
As to `Cc1nn(C)c(F)c1C(=O)Nc1ccccc1C(C)CC(C)C` (centres unmarked) [penflufen], the efficacy with Cordana musae (0.2 ppm) turned out to be 0%; in the test on Cordana musae (1 ppm), 0%; in the test on Diaporthe citri (Table F2, 0.04 ppm), 0%; with Diaporthe citri (Table F2, 0.2 ppm) it was 0%; in the test with Parastasonospora nodorum (Table H2, 5 ppm), 22%.
On to `CON(C(=O)c1cn(C)nc1C(F)F)C(C)Cc1c(Cl)cc(Cl)cc1Cl` (centres unmarked) [pydiflumetofen], for which the efficacy is on record as 0% with Cordana musae (0.008 ppm); 9% in the test with Cordana musae (0.04 ppm); 0% with Diaporthe citri (Table F2, 0.04 ppm); 22% with Diaporthe citri (Table F2, 0.2 ppm); 33% with Diaporthe citri (Table F2, 1 ppm).
As for `CON=C(C(=O)OC)c1ccccc1CON=C(C)c1cccc(C(F)(F)F)c1` [trifloxystrobin], the efficacy is 73% in the test on Cordana musae (0.2 ppm); 84% in the test with Cordana musae (1 ppm); 65% in the test with Parastasonospora nodorum (Table H1, 0.04 ppm); 85% in the test with Parastasonospora nodorum (Table H1, 0.2 ppm); 44% in the test on Parastasonospora nodorum (Table H2, 0.008 ppm); 79% in the test with Parastasonospora nodorum (Table H2, 0.04 ppm). Besides, the efficacy in the test on Fusarium culmorum (0.008 ppm) was 14%; in the test on Fusarium culmorum (0.04 ppm), 18%; in the test on Fusarium culmorum (0.2 ppm), 41%; in the test with Fusarium culmorum (1 ppm), 68%.
For inpyrfluxam [(2.027) inpyrfluxam], the efficacy was 0% in the test with Alternaria alternata (0.008 ppm); 41% and 27% in the test with Alternaria alternata (0.04 ppm); 86% with Alternaria alternata (1 ppm); 0% with Botrytis cinerea (0.008 ppm); 37% with Botrytis cinerea (0.04 ppm); 0% with Botrytis cinerea (0.08 ppm). Further, the efficacy with Cordana musae (0.008 ppm) amounted to 16%; in the test with Cordana musae (0.04 ppm), 0%; in the test with Cordana musae (0.2 ppm) it was 6%; in the test on Colletotrichum coccodes (0.008 ppm), 0%; in the test with Colletotrichum coccodes (0.08 ppm) it was 24%; in the test with Colletotrichum coccodes (0.2 ppm) it was 0%. Further, the efficacy in the test on Colletotrichum coccodes (0.4 ppm) amounted to 23%.
